Source: article PMC11509018, “Evaluation of the Role of Tanshinone I in an In Vitro System of Charcot-Marie-Tooth Disease Type 2N” (International Journal of Molecular Sciences, 2024)
Numbering of substitutions follows the chain as printed.

Experiments:
AlaRS^G102R = target: T1, AlaRS^G102R (Homo sapiens, UniProt P49588, G102R); test: Biolayer interferometry (BLI); format: binding; conditions: immobilized AlaRS^G102R, mean ± SD, triplicate
T1 construct: made in house; host or cells: E. coli BL21 (DE3), pET-21a
T1 sequence (P49588 1-968 G102R): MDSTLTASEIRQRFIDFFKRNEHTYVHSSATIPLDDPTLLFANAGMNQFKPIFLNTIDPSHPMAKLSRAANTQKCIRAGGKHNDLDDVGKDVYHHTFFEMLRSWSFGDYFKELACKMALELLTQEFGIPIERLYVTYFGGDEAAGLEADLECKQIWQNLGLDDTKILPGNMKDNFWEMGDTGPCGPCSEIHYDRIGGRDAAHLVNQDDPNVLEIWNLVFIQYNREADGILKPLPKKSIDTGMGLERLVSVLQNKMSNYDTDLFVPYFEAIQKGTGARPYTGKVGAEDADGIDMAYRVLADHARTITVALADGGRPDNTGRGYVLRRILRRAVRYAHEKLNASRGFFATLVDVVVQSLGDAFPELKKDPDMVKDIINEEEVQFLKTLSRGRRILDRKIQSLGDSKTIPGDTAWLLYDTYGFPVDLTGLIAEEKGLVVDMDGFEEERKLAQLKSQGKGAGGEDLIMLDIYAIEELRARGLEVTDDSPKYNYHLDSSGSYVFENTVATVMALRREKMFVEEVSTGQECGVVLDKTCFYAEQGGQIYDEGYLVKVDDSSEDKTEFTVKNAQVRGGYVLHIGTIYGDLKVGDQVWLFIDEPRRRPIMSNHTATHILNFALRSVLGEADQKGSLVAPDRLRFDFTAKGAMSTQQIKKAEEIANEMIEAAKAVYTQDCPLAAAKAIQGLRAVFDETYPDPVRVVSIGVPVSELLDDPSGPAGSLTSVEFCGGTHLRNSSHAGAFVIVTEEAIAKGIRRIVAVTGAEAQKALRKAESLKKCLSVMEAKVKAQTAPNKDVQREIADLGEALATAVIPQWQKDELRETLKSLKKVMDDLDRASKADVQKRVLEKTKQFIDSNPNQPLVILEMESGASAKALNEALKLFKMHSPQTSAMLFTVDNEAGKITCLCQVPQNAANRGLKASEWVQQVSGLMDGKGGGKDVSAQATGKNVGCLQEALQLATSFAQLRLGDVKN
Protocol: (§1) Furthermore, we examined the interaction of Tanshinone I with additional AlaRS CMT mutants capable of binding to Nrp1 and causing conformational changes by BLI and proteolysis assays on additional related mutants. […] To further quantify the binding of small molecules to mutant proteins, binding experiments with AlaRS^R329H proteins and small molecules were conducted using an Octet R8 system (ForteBio, Fremont, CA, USA). Purified His-tagged AlaRS^R329H proteins (500 μg/mL) were captured on Ni-NTA biosensors (ForteBio, Fremont, CA, USA), achieving a saturation response of 4–5 nm after 300 s. The biosensors were then transferred to Octet buffer (PBS with 0.01% Tween 20) for 180 s to remove loosely bound, nonspecific proteins and to establish a stable baseline. Following this, the sensors were immersed in diluted Tanshinone I (2.5–100 μM in assay buffer) for 120 s to record the association signal, and then transferred back into Octet buffer to monitor the dissociation signal for 120 s. Reference wells containing buffer instead of Tanshinone I were included to correct for baseline shifts. Additionally, a parallel set of Ni-NTA sensors in buffer served as negative reference controls to account for nonspecific binding of the compounds to the biosensor surface. The data were processed using a double reference subtraction protocol to eliminate nonspecific signals, background noise, and signal drifts caused by biosensor variability. All assays were performed in 96-well black plates with a total volume of 200 μL per well at 30 °C. Data analysis, including correction and curve fitting, was carried out using Octet® Analysis Studio 12.2.2.26. The experiment was repeated three times.

AlaRS^R326W = target: T2, AlaRS^R326W (Homo sapiens, UniProt P49588, R326W); test: Biolayer interferometry (BLI); format: binding; conditions: immobilized AlaRS^R326W, mean ± SD, triplicate
T2 construct: made in house; host or cells: E. coli BL21 (DE3), pET-21a
T2 sequence (P49588 1-968 R326W): T1 sequence (P49588 1-968 G102R) with R102G, R326W
Protocol: as §1

Kd (AlaRS^G102R): 31.2 ± 11.9 µM | Kd (AlaRS^R326W): 39.6 ± 6.4 µM
SMILES: Cc1coc2c1C(=O)C(=O)c1c-2ccc2c(C)cccc12 [Tanshinone I]
